In data set [1] the test system is Human B Lymphocyte cell line, SU-DHL-8. Kind of data set: Relative cell viability CCK-8, SU-DHL-8. Particulars: for viability at 1 µM / viability at 10 µM / viability at 30 µM / viability at 50 µM: Homo sapiens, SU-DHL-8, 48 h; for viability at 1 µM: read-out: Relative cell viability (%), SU-DHL-8, 1 μM; for viability at 10 µM: read-out: Relative cell viability (%), SU-DHL-8, 10 μM; for viability at 30 µM: read-out: Relative cell viability (%), SU-DHL-8, 30 μM; for viability at 50 µM: read-out: Relative cell viability (%), SU-DHL-8, 50 μM. The data set is classed as cell-based. In a few lines: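 Cells grown in RPMI-1640 with 10% FBS, treated with compound at several concentrations, then given CCK-8 for 4 h at 37° C. Viability expressed as percent of DMSO-treated cells.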

The subject of data set [2] is T cells isolated from mouse spleens. In words: T cell proliferation inhibition (CFSE flow cytometry, anti-CD3/anti-CD28 stimulation). The data set is classed as cell-based. Particulars: mouse spleen T cells, 3 days; for inhibition at 0.01 µM / inhibition at 0.1 µM / inhibition at 1 µM / inhibition at 10 µM / inhibition at 30 µM / inhibition at 50 µM: Mus musculus, T-cell, 72 h, read-out: Proliferation inhibition rate (%). The method, boiled down: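 Proliferation inhibition (%) came from flow cytometry of CFSE dilution after 3 days' culture at 37 °C with compound (10 nM, 100 nM, 1, 10, 30, 50 μM; triplicate wells). Cells were magnetically purified T cells from C57BL/6 mouse spleens, 2×10^5 per well, stimulated with 0.5 μg/mL each anti-CD3 and anti-CD28.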

Where [3] appears, read: 48 hours, untreated (DMSO) = 100%.
Where [4] appears, read: 1 μM, 48 hours, untreated (DMSO) = 100%.
The mark [5] stands for this setting: 10 μM, 48 hours, untreated (DMSO) = 100%.
[6] abbreviates: 30 μM, 48 hours, untreated (DMSO) = 100%.
The mark [7] stands for this setting: 50 μM, 48 hours, untreated (DMSO) = 100%.

The values that follow come from patent US20260183274A1, “PDK1 REGULATORY COMPOUND AND COMPOSITION CONTAINING THE SAME” (PROVIBIO CO., LTD., priority 2024, published 2026).

With `Nc1ncccc1C(=O)NCCCCCCCCCCCCN1CC2CCCC2C1` (stereo not drawn) [Compound 46, 2-Amino-N-(12-(hexahydrocyclopenta[c]pyrrol-2 (1H)-yl)dodecyl)nicotinamide], in data set [1] (setting [3]), the viability (as a rule, a per cent measure of how many cells are alive, often set against a control) at 1 µM was 4.8%; the viability at 10 µM is 2.44%; the viability at 30 µM is 2.08%. Further, the “Relative cell viability (%), SU-DHL-8” value in data set [1] (human, 48 h, 50 µM) is −0.92%. The inhibition at 0.01 µM in data set [2] (compound 10 nM) is -10.5%. For the same molecule, the inhibition at 0.1 µM in data set [2] (compound 100 nM) turned out to be 100%. In addition, the inhibition at 1 µM in data set [2] (compound 1 μM) is 100%. Besides, in data set [2] (compound 10 μM), the inhibition at 10 µM turned out to be 100%. Further, the inhibition at 30 µM in data set [2] (compound 30 μM) was determined as 100%. Also, the inhibition at 50 µM in data set [2] (compound 50 μM) was 100%.
As to `Nc1ncccc1C(=O)NCCCCCCCCCCCCn1ncc2ccc(Cl)nc21` [Compound 123, 2-Amino-N-(12-(6-chloro-1H-pyrazolo[3,4-b]pyridin-1-yl)dodecyl)nicotinamide], in data set [1] (setting [3]), the viability at 1 µM was 42.2%, the viability at 10 µM turned out to be 42.2%, the viability at 30 µM was 44.6% and the viability at 50 µM is 48.8%. Further, the inhibition at 0.01 µM in data set [2] (compound 10 nM) was -2.54%. Further, in data set [2] (compound 100 nM), the inhibition at 0.1 µM worked out at 4.78%. In data set [2] (compound 1 μM), the inhibition at 1 µM stood at 48.4%. Moreover, in data set [2] (compound 10 μM), the inhibition at 10 µM came out at 100%. In addition, the inhibition at 30 µM in data set [2] (compound 30 μM) amounted to 100%. Also, the inhibition at 50 µM in data set [2] (compound 50 μM) was 100%.
For the molecule `Cl.O=C(NCCCCCCCCCCCCN1CCNCC1)c1ccc(-c2ccccc2)o1` [Compound 90, 5-Phenyl-N-(12-(piperazin-1-yl)dodecyl) furan-2-carboxamide hydrochloride], the “Relative cell viability (%), SU-DHL-8” value is 7.19% in data set [1] (setting [4]), 5.94% in data set [1] (setting [5]), 2.48% in data set [1] (setting [6]) and 1.94% in data set [1] (setting [7]). In addition, the “Proliferation inhibition rate (%)” value in data set [2] (compound 10 nM) is −8.27%; in data set [2] (compound 100 nM), −2.03%; in data set [2] (compound 1 μM), 66.18%; in data set [2] (compound 10 μM), 100.00%; in data set [2] (compound 30 μM) it was 100.00%; in data set [2] (compound 50 μM), 100.00%.
For the molecule `O=C(NCCCCCCCCCCCCF)c1cccnc1S` [Compound 62, N-(12-fluoro-dodecyl)-2-mercapto-nicotinamide], in data set [1] (setting [3]), the viability at 1 µM came to 32.5%, the viability at 10 µM was 24.9%, the viability at 30 µM was 22.9% and the viability at 50 µM came to 19.3%. For the same molecule, the inhibition at 0.01 µM in data set [2] (compound 10 nM) was 0%. For the same molecule, in data set [2] (compound 100 nM), the inhibition at 0.1 µM worked out at 0%. For the same molecule, the inhibition at 1 µM in data set [2] (compound 1 μM) came to 0%. In addition, the inhibition at 10 µM in data set [2] (compound 10 μM) was -18.5%. For the same molecule, the inhibition at 30 µM in data set [2] (compound 30 μM) worked out at 100%. In addition, the inhibition at 50 µM in data set [2] (compound 50 μM) was determined as 100%.
For the molecule `CN(C)CCN1CCN(CCCCCCCCCCCCNC(=O)c2cccnc2N)CC1` [Compound 33, 2-Amino-N-(12-(4-(2-(dimethylamino)ethyl)piperazin-1-yl)dodecyl)nicotinamide], in data set [1] (setting [3]), the viability at 1 µM amounted to 10.1%, the viability at 10 µM was 4.32%, the viability at 30 µM was found to be 3.35% and the viability at 50 µM was 2.66%. The inhibition at 0.01 µM in data set [2] (compound 10 nM) is -36%. For the same molecule, in data set [2] (compound 100 nM), the inhibition at 0.1 µM amounted to 100%. Besides, in data set [2] (compound 1 μM), the inhibition at 1 µM is 100%. Further, in data set [2] (compound 10 μM), the inhibition at 10 µM turned out to be 100%. In addition, in data set [2] (compound 30 μM), the inhibition at 30 µM worked out at 100%. In addition, the inhibition at 50 µM in data set [2] (compound 50 μM) amounted to 100%.
Turning to `COc1ccc(CN2CCN(CCCCCCCCCCCCNC(=O)c3cccnc3N)CC2)cc1` [Compound 28, 2-Amino-N-(12-(4-(4-methoxybenzyl)piperazin-1-yl)dodecyl)nicotinamide], in data set [1] (setting [3]), the viability at 1 µM was found to be 5.46%, the viability at 10 µM turned out to be 2.82% and the viability at 30 µM was 0.33%. Further, in data set [1] (human, 48 h, 50 µM), the “Relative cell viability (%), SU-DHL-8” value is recorded as −1.55%. The inhibition at 0.01 µM in data set [2] (compound 10 nM) is -0.27%. Moreover, the inhibition at 0.1 µM in data set [2] (compound 100 nM) is 100%. In addition, in data set [2] (compound 1 μM), the inhibition at 1 µM stood at 100%. For the same molecule, the inhibition at 10 µM in data set [2] (compound 10 μM) came to 100%. The inhibition at 30 µM in data set [2] (compound 30 μM) is 100%. The inhibition at 50 µM in data set [2] (compound 50 μM) worked out at 100%.
As for `CN(C)C1CCN(CCCCCCCCCCCCNC(=O)c2cccnc2N)C1` (stereo not drawn) [Compound 19, 2-Amino-N-(12-(3-(dimethylamino)pyrrolidin-1-yl)dodecyl)nicotinamide], in data set [1] (setting [3]), the viability at 1 µM was 8.51%, the viability at 10 µM is 7.51%, the viability at 30 µM stood at 5.98% and the viability at 50 µM stood at 5.08%. In addition, in data set [2] (compound 10 nM), the inhibition at 0.01 µM is -14.4%. Moreover, the inhibition at 0.1 µM in data set [2] (compound 100 nM) was determined as 100%. Moreover, the inhibition at 1 µM in data set [2] (compound 1 μM) stood at 100%. The inhibition at 10 µM in data set [2] (compound 10 μM) came to 100%. The inhibition at 30 µM in data set [2] (compound 30 μM) stood at 100%. Also, the inhibition at 50 µM in data set [2] (compound 50 μM) is 100%.
`CC1C2CCCN2CCN1CCCCCCCCCCCCNC(=O)c1cccnc1N` (stereo not drawn) [Compound 29, 2-Amino-N-(12-(1-methylhexahydropyrrolo[1,2-a]pyrazin-2 (1H)-yl)dodecyl)nicotinamide]: in data set [1] (setting [3]), the viability at 1 µM worked out at 3.85%, the viability at 10 µM came to 1.86%, the viability at 30 µM was 1.25% and the viability at 50 µM is 1.03%. For the same molecule, in data set [2] (compound 10 nM), the inhibition at 0.01 µM worked out at 4.15%. Further, the inhibition at 0.1 µM in data set [2] (compound 100 nM) was 100%. Further, the inhibition at 1 µM in data set [2] (compound 1 μM) stood at 100%. Also, the inhibition at 10 µM in data set [2] (compound 10 μM) came to 100%. Moreover, the inhibition at 30 µM in data set [2] (compound 30 μM) was 100%. For the same molecule, the inhibition at 50 µM in data set [2] (compound 50 μM) was 100%.
As to `CC1(C)CCN(CCCCCCCCCCCCNC(=O)c2cccnc2N)C1` [Compound 22, 2-Amino-N-(12-(3,3-dimethylpyrrolidin-1-yl)dodecyl) nicotinamide], the “Relative cell viability (%), SU-DHL-8” value in data set [1] (setting [4]) was determined as 6.46%; in data set [1] (setting [5]), 2.85%; in data set [1] (setting [6]), 2.45%; in data set [1] (setting [7]), 1.67%. The “Proliferation inhibition rate (%)” value in data set [2] (compound 10 nM) is −0.80%; in data set [2] (compound 100 nM), 100.00%; in data set [2] (compound 1 μM), 100.00%; in data set [2] (compound 10 μM), 100.00%; in data set [2] (compound 30 μM), 100.00%; in data set [2] (compound 50 μM) it was 100.00%.
As to `Nc1ncccc1C(=O)NCCCCCCCCCCCCN1CCC(F)C1` (stereo not drawn) [Compound 26, 2-Amino-N-(12-(3-fluoropyrrolidin-1-yl)dodecyl) nicotinamide], the “Relative cell viability (%), SU-DHL-8” value is on record as 1.70% in data set [1] (setting [4]), 1.04% in data set [1] (setting [5]) and 0.05% in data set [1] (setting [6]). Further, the “Proliferation inhibition rate (%)” value in data set [2] (compound 10 nM) stood at 2.13%; in data set [2] (compound 100 nM) it was 100.00%; in data set [2] (compound 1 μM), 100.00%; in data set [2] (compound 10 μM), 100.00%; in data set [2] (compound 30 μM) it was 100.00%; in data set [2] (compound 50 μM), 100.00%.
Consider `CC1CN(C)C(CCCCCCCCCCCCNc2ccc3cncnc3n2)N1` (stereo not drawn) [Compound 43], for which the “Relative cell viability (%), SU-DHL-8” value in data set [1] (setting [4]) worked out at 22.61%; in data set [1] (setting [5]), 11.93%; in data set [1] (setting [6]) it was 2.34%; in data set [1] (setting [7]) it was 1.58%. The “Proliferation inhibition rate (%)” value is recorded as −10.80% in data set [2] (compound 10 nM); 100.00% in data set [2] (compound 100 nM); 100.00% in data set [2] (compound 1 μM); 100.00% in data set [2] (compound 10 μM); 100.00% in data set [2] (compound 30 μM); 100.00% in data set [2] (compound 50 μM).
Take `Cc1nnc(C)n1CCCCCCCCCCCCNC(=O)c1cccnc1N` [Compound 56, 2-Amino-N-(12-(3,5-dimethyl-4H-1,2,4-triazol-4-yl)dodecyl)nicotinamide]: in data set [1] (setting [3]), the viability at 1 µM was determined as 32.4%, the viability at 10 µM came out at 19.6%, the viability at 30 µM is 11.2% and the viability at 50 µM came to 0%. The inhibition at 0.01 µM in data set [2] (compound 10 nM) was -2.51%. Moreover, the inhibition at 0.1 µM in data set [2] (compound 100 nM) came out at 2.91%. The inhibition at 1 µM in data set [2] (compound 1 μM) amounted to 81.1%. The inhibition at 10 µM in data set [2] (compound 10 μM) came to 100%. Moreover, in data set [2] (compound 30 μM), the inhibition at 30 µM was found to be 100%. Further, the inhibition at 50 µM in data set [2] (compound 50 μM) turned out to be 100%.
Regarding `Nc1ncccc1C(=O)NCCCCCCCCCCCCN1CCCC1` [Compound 20, 2-Amino-N-(12-(pyrrolidin-1-yl)dodecyl)nicotinamide], in data set [1] (setting [3]), the viability at 1 µM came to 7.74%, the viability at 10 µM came out at 5.34%, the viability at 30 µM came out at 4.89% and the viability at 50 µM worked out at 3.68%. Further, the inhibition at 0.01 µM in data set [2] (compound 10 nM) came to 3.46%. Besides, the inhibition at 0.1 µM in data set [2] (compound 100 nM) is 100%. Further, the inhibition at 1 µM in data set [2] (compound 1 μM) was 100%. Besides, the inhibition at 10 µM in data set [2] (compound 10 μM) was 100%. For the same molecule, the inhibition at 30 µM in data set [2] (compound 30 μM) worked out at 100%. In data set [2] (compound 50 μM), the inhibition at 50 µM stood at 100%.
